In patent publication US20050101595A1, “N-containing cycloalkyl-substituted amino-thiazole derivatives and pharmaceutical compositions for inhibiting cell proliferation and methods for their use” (PFIZER INC., priority 2003, published 2005):
Structures can show the parent of a compound that is named as a salt. Where two headings read alike, the source gives them in different places.

What was measured:
CDK2/Cyclin A = CDK2/Cyclin A (Homo sapiens, UniProt P24941); assay: Inhibition of CDK2/Cyclin A Retinoblastoma Kinase Activity; assay type: biochemical; details: for Ki: apparent Ki, CDK2/proteolyzed cyclin A, Rb fragment substrate, 25 μM ATP; for CDK2 % Inhibition At 0.03 μM: Table 2
Outline: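 CDK2 (10 or 19 nM), insect-cell expressed, gel-filtration purified with truncated cyclin A; Rb fragment substrate; 25 μM ATP; 10 mM HEPES pH 7.4, 10 mM MgCl2; 30° C, 60 or 75 min; EDTA stop; phosphocellulose/nitrocellulose capture, phosphorimager. % inhibition vs DMSO control, no-enzyme background subtracted.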

[1] = molecular target: human CDK4 and genetically truncated (1-264) cyclin D3 (Homo sapiens, UniProt P11802); assay: Inhibition of CDK4/Cyclin D Retinoblastoma Kinase Activity; assay type: biochemical; details: for Ki: apparent Ki, CDK4/truncated cyclin D3, Rb fragment substrate, 25 μM ATP
human CDK4 and genetically truncated (1-264) cyclin D3, sequence (P11802 whole entry, the tested form may be a part): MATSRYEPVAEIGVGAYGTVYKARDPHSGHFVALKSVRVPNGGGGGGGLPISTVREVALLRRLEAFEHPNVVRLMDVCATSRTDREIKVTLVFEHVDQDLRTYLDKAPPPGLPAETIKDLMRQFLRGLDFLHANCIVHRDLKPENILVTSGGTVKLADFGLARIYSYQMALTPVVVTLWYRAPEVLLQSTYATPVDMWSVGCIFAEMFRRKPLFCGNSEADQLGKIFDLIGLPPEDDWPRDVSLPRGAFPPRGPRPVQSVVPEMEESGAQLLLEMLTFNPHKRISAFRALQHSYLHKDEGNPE
human CDK4 and genetically truncated (1-264) cyclin D3, sequence (P30281 1-264 partner): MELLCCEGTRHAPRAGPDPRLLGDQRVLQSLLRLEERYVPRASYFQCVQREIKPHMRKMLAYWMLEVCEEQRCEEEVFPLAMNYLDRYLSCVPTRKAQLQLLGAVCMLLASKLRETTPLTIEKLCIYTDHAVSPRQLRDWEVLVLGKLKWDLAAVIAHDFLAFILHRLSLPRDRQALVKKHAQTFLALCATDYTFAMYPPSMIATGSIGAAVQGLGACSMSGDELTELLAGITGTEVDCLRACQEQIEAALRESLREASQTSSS
Outline: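 The enzyme complex (5 nM), expressed in co-infected insect cells, was incubated with recombinant Rb fragment, 25 μM radiolabelled ATP and 2% DMSO at 30 °C. Reactions were stopped with EDTA after 20 minutes, or 60 minutes for tight-binding inhibitors. Apparent Ki values came from competitive inhibition fits.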

HCT-116 cell line = assay: Inhibition of cell growth, tetrazolium salt (MTT) assay; assay type: cell-based; details: for IC50: Homo sapiens, HCT-116, 120 h, MTT, three to five days, read-out: HCT-116 IC50; for HCT-116 % Inhibition at 0.25 μM: 0.25 μM compound
Outline: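 Growth inhibition by MTT reduction at 540 nm (0.2 mg/mL, 4 h at 37° C, formazan dissolved in DMSO), normalized to cells given only 0.5% v/v DMSO. HCT-116 cultures in McCoy's 5A were dosed 4 h post-plating and kept three to five days at 37° C, 5% CO2.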

[2] = 0.1 μM compound, HCT-116, Table 4
[3] = 0.1 μM compound, HCT-116, Table 3
[4] = 0.03 μM compound, Table 4, 0.03 µM

CC1=NC(C)CN1c1ccc(S(=O)(=O)N2CCC(Nc3nc(N)c(C(=O)c4c(F)cccc4F)s3)CC2)cn1 (centres unmarked) [Example G23, 1-(4-Amino-2-{1-[6-(2,4-dimethyl-4,5-dihydro-imidazol-1-yl)-pyridin-3-sulfonyl]-piperidin-4-ylamino}-thiazol-5-yl)-1-(2,6-difluoro-phenyl)-methanone Hydrochloride]
Ki (CDK2/Cyclin A): < 1 nM | Ki [1]: 0.44 nM | IC50 (HCT-116 cell line; first HCT-116 column (c4)): 750 nM | IC50 (HCT-116 cell line; second HCT-116 column (c5)): 5000 nM

Nc1nc(NC2CCN(S(=O)(=O)c3ccc(N4CCC[C@@H]4CO)nc3)CC2)sc1C(=O)c1c(F)cccc1F [Example G13, 1-{4-Amino-2-{1-[6-(2R-hydroxymethyl-pyrrolidin-1-yl)-pyridine-3-sulfonyl]-piperidin-4-ylamino}-thiazol-5-yl)-1-(2,6-difluoro-phenyl)-methanone Trifluoroacetic Acid Salt]
Ki (CDK2/Cyclin A): < 1 nM | Ki [1]: 0.64 nM | IC50 (HCT-116 cell line; first HCT-116 column (c4)): 170 nM | IC50 (HCT-116 cell line; second HCT-116 column (c5)): 3900 nM

Nc1nc(NC2CCN(C(=O)c3ccccc3C(F)(F)F)CC2)sc1C(=O)c1c(F)cccc1F [Example R124]
CDK2 % Inhibition at 0.03 μM (CDK2/Cyclin A; at 0.03 μM): 18% | CDK4 % Inhibition at 0.03 μM ([1]; at 0.03 μM): 38% | HCT-116 % Inhibition at 0.1 μM (HCT-116 cell line; HCT-116 cells, at 0.1 μM): 0% | HCT-116 5 Inhibition at 0.25 μM (HCT-116 cell line; HCT-116 cells): 35

CNc1ccc(S(=O)(=O)N2CCC(Nc3nc(N)c(C(=O)c4c(F)cccc4F)s3)CC2)cn1 [Example G7, 1-{4-Amino-2-[1-(6-methylamino-pyridine-3-sulfonyl)-piperidin-4-ylamino]-thiazol-5-yl}-1-(2,6-difluoro-phenyl)-methanone]
Ki (CDK2/Cyclin A): 0.75 nM | Ki [1]: 1.6 nM | IC50 (HCT-116 cell line; first HCT-116 column (c4)): 180 nM | IC50 (HCT-116 cell line; second HCT-116 column (c5)): 650 nM

CNCCS(=O)(=O)N1CCC(Nc2nc(N)c(C(=O)c3c(F)cccc3F)s2)CC1 [Example K33, {4-Amino-2-[1-(2-methylamino-ethanesulfonyl)-piperidin-4-ylamino]-thiazol-5-yl}-(2,6-difluoro-phenyl)-methanone Trifluoroacetic Acid Salt.]
Ki (CDK2/Cyclin A): 5.6 nM | Ki [1]: 0.64 nM | IC50 (HCT-116 cell line; first HCT-116 column (c4)): 650 nM | IC50 (HCT-116 cell line; second HCT-116 column (c5)): 5000 nM

CN1CCN(c2ncc(S(=O)(=O)N3CCC(Nc4nc(N)c(C(=O)c5c(F)cccc5F)s4)CC3)cn2)CC1 [Example G34, (4-Amino-2-{1-[2-(4-methyl-piperazin-1-yl)-pyrimindine-5-sulfonyl]-piperidin-4-ylamino}-thiazol-5-yl)-(2,6-difluoro-phenyl)-methanone Hydrochloride Salt]
Ki (CDK2/Cyclin A): 0.82 nM | Ki [1]: 0.57 nM | IC50 (HCT-116 cell line; first HCT-116 column (c4)): 40 nM | IC50 (HCT-116 cell line; second HCT-116 column (c5)): 250 nM

Nc1nc(NC2CCN(C(=O)/C=C/c3ccccc3)CC2)sc1C(=O)c1c(F)cccc1F [Example Q45]
CDK2 % Inhibition at 0.03 μM (CDK2/Cyclin A; 0.03 μM compound, Table 4): 21% | CDK4 % Inhibition at 0.03 μM ([1]; 0.03 μM compound, Table 4): 47% | HCT-116 % Inhibition at 0.1 μM (HCT-116 cell line; [2]): 0% | HCT-116 % Inhibition at 0.25 μM (HCT-116 cell line; HCT-116, Table 4): 31%

Nc1nc(NC2CCN(S(=O)(=O)c3ccc(Oc4ccc(I)cc4)cc3)CC2)sc1C(=O)c1c(F)cccc1F [Example P86]
CDK2 % Inhibition at 0.03 μM (CDK2/Cyclin A; 0.03 μM compound, Table 3): 38% | CDK4 % Inhibition at 0.03 μM ([1]; 0.03 μM compound, Table 3): 51% | HCT-116 % Inhibition at 0.1 μM (HCT-116 cell line; [3]): 7% | HCT-116 % Inhibition at 0.25 μM (HCT-116 cell line; HCT-116, Table 3): 26%

Cn1cncc1C(=O)N1CCC(Nc2nc(N)c(C(=O)c3c(F)cccc3F)s2)CC1 [Example C15, 1-(4-Amino-2-{1-[1-(3-methyl-3H-imidazol-4-yl)-methanoyl]-piperidin-4-ylamino}-thiazol-5-y)-1-(2,6-difluoro-phenyl)-methanone]
Ki (CDK2/Cyclin A): 150 nM | Ki [1]: 51 nM | IC50 (HCT-116 cell line; first HCT-116 column (c4)): > 5000 nM | IC50 (HCT-116 cell line; second HCT-116 column (c5)): > 5000 nM

Nc1nc(NC2CCN(C(=O)c3cccc([N+](=O)[O-])c3)CC2)sc1C(=O)c1c(F)cccc1F [Example Q69]
CDK2 % Inhibition at 0.03 μM (CDK2/Cyclin A; 0.03 μM compound, Table 4): 54% | CDK4 % Inhibition at 0.03 μM ([1]; 0.03 μM compound, Table 4): 80% | HCT-116 % Inhibition at 0.1 μM (HCT-116 cell line; [2]): 1% | HCT-116 % Inhibition at 0.25 μM (HCT-116 cell line; HCT-116, Table 4): 24%

N#Cc1ccc(S(=O)(=O)N2CCCC(Nc3nc(N)c(C(=O)c4c(F)cccc4F)s3)C2)cc1 (centres unmarked) [Example F35, 4-{3-[4-Amino-5-(2,6-difluoro-benzoyl)-thiazol-2-ylamino]-piperidine-1-sulfonyl}-benzonitrile]
Ki (CDK2/Cyclin A): 76 nM | Ki [1]: 340 nM | IC50 (HCT-116 cell line; first HCT-116 column (c4)): 1600 nM | IC50 (HCT-116 cell line; second HCT-116 column (c5)): 2600 nM

Nc1nc(NC2CCN(C(=O)c3c(F)cccc3F)CC2)sc1C(=O)c1c(F)cccc1F [Example R105]
CDK2 % Inhibition at 0.03 μM (CDK2/Cyclin A; at 0.03 μM): 8% | CDK4 % Inhibition at 0.03 μM ([1]; at 0.03 μM): 9% | HCT-116 % Inhibition at 0.1 μM (HCT-116 cell line; HCT-116 cells, at 0.1 μM): 0% | HCT-116 5 Inhibition at 0.25 μM (HCT-116 cell line; HCT-116 cells): 44

CCCCCCCOc1ccc(NC(=O)N2CCC(Nc3nc(N)c(C(=O)c4c(F)cccc4F)s3)CC2)cc1 [Example O83]
CDK2 % Inhibition At 0.03 μM (CDK2/Cyclin A; 0.03 μM compound): 29% | CDK4 % Inhibition at 0.03 μM ([1]; 0.03 μM compound, Table 2): 12% | HCT-116 % Inhibition at 0.25 μM (HCT-116 cell line; HCT-116, Table 2): 59%

CC(C)c1ccc(S(=O)(=O)N2CCC(Nc3nc(N)c(C(=O)c4c(F)cccc4F)s3)CC2)cc1 [Example P31]
CDK2 % Inhibition at 0.03 μM (CDK2/Cyclin A; 0.03 μM compound, Table 3): 40% | CDK4 % Inhibition at 0.03 μM ([1]; 0.03 μM compound, Table 3): 50% | HCT-116 % Inhibition at 0.1 μM (HCT-116 cell line; [3]): 3% | HCT-116 % Inhibition at 0.25 μM (HCT-116 cell line; HCT-116, Table 3): 16%

Nc1nc(NC2CCN(C(=O)c3cccc([N+](=O)[O-])c3)CC2)sc1C(=O)c1c(F)cccc1F [Example C12, 1-(4-Amino-2-{1-[1-(3-nitro-phenyl)-methanoyl]-piperidin-4-ylamino}-thiazol-5-yl)-1-(2,6-difluoro-phenyl)-methanone]
Ki (CDK2/Cyclin A): 59 nM | Ki [1]: 12 nM | IC50 (HCT-116 cell line; first HCT-116 column (c4)): 220 nM | IC50 (HCT-116 cell line; second HCT-116 column (c5)): 510 nM

CCCCCCOc1ccc(C(=O)N2CCC(Nc3nc(N)c(C(=O)c4c(F)cccc4F)s3)CC2)cc1 [Example Q31]
CDK2 % Inhibition at 0.03 μM (CDK2/Cyclin A; [4]): −2% | CDK4 % Inhibition at 0.03 μM [1, 4]: 35% | HCT-116 % Inhibition at 0.1 μM (HCT-116 cell line; [2]): 8% | HCT-116 % Inhibition at 0.25 μM (HCT-116 cell line; HCT-116, Table 4, 0.25 µM): 41%

COC(=O)c1ccc(OC(=O)N2CCC(Nc3nc(N)c(C(=O)c4c(F)cccc4F)s3)CC2)cc1 [Example Q87]
CDK2 % Inhibition at 0.03 μM (CDK2/Cyclin A; 0.03 μM compound, Table 4): 54% | CDK4 % Inhibition at 0.03 μM ([1]; 0.03 μM compound, Table 4): 77% | HCT-116 % Inhibition at 0.1 μM (HCT-116 cell line; [2]): 4% | HCT-116 % Inhibition at 0.25 μM (HCT-116 cell line; HCT-116, Table 4): 37%

Nc1nc(NC2CCN(S(=O)(=O)c3ccc(Oc4ccccc4)cc3)CC2)sc1C(=O)c1c(F)cccc1F [Example P84]
CDK2 % Inhibition at 0.03 μM (CDK2/Cyclin A; 0.03 μM compound, Table 3): 28% | CDK4 % Inhibition at 0.03 μM ([1]; 0.03 μM compound, Table 3): 38% | HCT-116 % Inhibition at 0.1 μM (HCT-116 cell line; [3]): 10% | HCT-116 % Inhibition at 0.25 μM (HCT-116 cell line; HCT-116, Table 3): 26%

C[Si](C)(C)NC(=O)N1CCC(Nc2nc(N)c(C(=O)c3c(F)cccc3F)s2)CC1 [Example O2]
CDK2 % Inhibition At 0.03 μM (CDK2/Cyclin A; 0.03 μM compound): 34% | CDK4 % Inhibition at 0.03 μM ([1]; 0.03 μM compound, Table 2): 6% | HCT-116 % Inhibition at 0.25 μM (HCT-116 cell line; HCT-116, Table 2): 0%

CCN1CCN(CCCS(=O)(=O)N2CCC(Nc3nc(N)c(C(=O)c4c(F)cccc4F)s3)CC2)CC1 [Example K15, 1-(4-Amino-2-{1-[3-(4-ethylpiperazin-1-yl)propane-1-sulfonyl]-piperidin-4-ylamino}-thiazol-5-yl)-1-(2,6-difluoro-phenyl)-methanone.]
Ki (CDK2/Cyclin A): 8.7 nM | Ki [1]: 2.5 nM | IC50 (HCT-116 cell line; first HCT-116 column (c4)): 1300 nM | IC50 (HCT-116 cell line; second HCT-116 column (c5)): 5000 nM

Cc1ncc(-c2ccc(S(=O)(=O)N3CCC(Nc4nc(N)c(C(=O)c5c(F)cccc5F)s4)CC3)cc2)[nH]1 [Example F33, 1-(4-Amino-2-{1-[4-(2-methyl-1H-imidazol-4-yl)-benzenesulfonyl]-piperidin-4-ylamino}-thiazol-5-yl)-1-(2,6-difluoro-phenyl)-methanone Dihydrochloride]
Ki (CDK2/Cyclin A): 0.28 nM | Ki [1]: 0.28 nM | IC50 (HCT-116 cell line; first HCT-116 column (c4)): 160 nM | IC50 (HCT-116 cell line; second HCT-116 column (c5)): 1600 nM

Nc1nc(NC2CCN(C(=O)c3cccnc3Cl)CC2)sc1C(=O)c1c(F)cccc1F [Example R18]
CDK2 % Inhibition at 0.03 μM (CDK2/Cyclin A; at 0.03 μM): 25% | CDK4 % Inhibition at 0.03 μM ([1]; at 0.03 μM): 46% | HCT-116 % Inhibition at 0.1 μM (HCT-116 cell line; HCT-116 cells, at 0.1 μM): 0% | HCT-116 5 Inhibition at 0.25 μM (HCT-116 cell line; HCT-116 cells): 45
